The text below walks through data of patent US9821042B2, “Use of antagonists of ghrelin or ghrelin receptor to prevent or treat stress-sensitive psychiatric illness” (Massachusetts Institute of Technology, priority 2012, dated 2017).

Where two headings read alike, the source gives them in different places. Non-standard residues stand in square brackets, D forms with d. No end group written: not given here.

Series [1] has as its system adult male Long Evans rats. In words: Auditory fear conditioning after repeated intra-BLA infusions of ghrelin receptor agonist. The format is in vivo, rat. Conditions: intra-BLA infusion daily for five days. The method, then: Cannulae Implants. Rats were anesthetized with a cocktail of 10 mg/kg acepromazine, […], and 100 mg/kg ketamine (1 ml/kg; i.p.). Rats were mounted into a dual arm stereotaxic frame (Kopf Instruments; Tujunga, Calif.). The rats were then bilaterally implanted with 23-gauge stainless steel guide cannulae aimed 1 mm above the lateral amygdala: A/P −2.0, M/L+/−5.3, D/V −5.4, relative to brain surface and bregma (45). The cannulae were secured by the placement of three jeweler screws in the skull and dental acrylic. Dummy cannulae extending 1 mm past the tip of the guide cannulae were placed into the guide cannula after surgery and changed every other day. Rats received 0.03 mg/kg of Buprenex (1 ml/kg; s.c.) as post-operative pain management every 12 h for at least 24 h and up to 3 days. All rats recovered for a minimum of 5 days before experimentation commenced.
Drug Infusion. For intra-cranial infusions, rats were placed in 5-gallon buckets containing bedding. The dummy cannulae were removed and injectors (30G stainless steel cannulae; extending 1 mm beyond the cannulae end) were inserted. The injectors were attached to Hamilton syringes (10 ul; Hamilton Co., Reno, Nev.) via polyethylene tubing, and the syringes were mounted in a Harvard syringe pump (Harvard Apparatus; Holliston, Mass.). Infusions were given at a rate of 0.1 ul/m for 5 m for a total volume of 0.5 ul/side, with 1 m for diffusion, before the injectors were removed and new dummy cannulae were inserted.
(§1) Pavlovian Fear Conditioning.
Fear memory requires plasticity in numerous brain regions but the basolateral complex of the amygdala (BLA) is particularly important for both formation and storage of learned fear.

The subject of series [2] is CRF. Put plainly: Brain CRF levels by ELISA after systemic MK-0677. Conditions: 5 d systemic injections, 24 h after final injection. It is filed as in vivo, rat. Here is the method: Rats received daily systemic injections of MK-0677 (MK: 5d), a GHSR-1a agonist, or saline (VEH: 5d) for five days at the endogenous ghrelin signaling nadir. (b) One group underwent auditory fear conditioning 24 h following the final injection. Fear acquisition was assessed by monitoring freezing levels. (c) Conditional freezing to the tone was assessed in a novel context 48 h following fear conditioning. A separate group was sacrificed 24 h following the final injection and microdissections of hypothalamus and amygdala performed. Brain CRF levels were measured using ELISA (d) hypothalamus, (e), basolateral complex of the amygdala). * p<0.05, ** p<0.01, ˜p<0.10 in planned comparisons.
Hormone Assays. Corticosterone, acylated ghrelin, growth hormone and CRF levels were determined using commercial ELISA kits. For corticosterone, non-acidified plasma was diluted 1:25 in assay buffer 15 (Enzo Life Sciences; Farmingdale, N.Y.). For acylated ghrelin, the acidified sample was used for the active ghrelin ELISA (Millipore; Billerica, Mass.) and processed according to the manufacturer's protocol. […] For growth hormone, brain tissue was homogenized 1:6 in lysis buffer and was assayed as per manufacturer's protocol (Millipore; Billerica, Mass.). […]
On the technique in general: An ELISA detects its analyte on a solid surface through an enzyme-linked reagent.

Series [3] concerns growth hormone release. The settings on record: dose of 0.5 mg/ml; cited from earlier work.
In series [4] the test system is adult male Long Evans rats. Put plainly: Elevated plus maze after systemic MK-0677. It is filed as in vivo, rat. Conditions: 5 d systemic injections, single 8 minute session 24 h after last injection. The method, then:
Rats received a daily systemic injection of MK-0677 (MK: 5d), an agonist of GHSR-1a, or vehicle (VEH: 5d) for five days at the endogenous ghrelin signaling nadir. Spontaneous freezing (a) and locomotion (b) were assessed in a novel context 24 h after the last injection. A separate group was assessed on the elevated plus maze in a single 8 minute session 24 h after the last injection. Total arm entries (c) and open arm time (d) were measured to assess exploratory behavior and innate anxiety, respectively. (e) Animals received Pavlovian fear conditioning 24 h before beginning daily handling injections of MK-0677 (Post FC MK: 5d) or vehicle (Post FC VEH: 5d) for 5d. […] All data are mean±s.e.m.
Elevated Plus Maze. Rats were tested for anxiety using an elevated plus maze (Hamilton Kinder; Poway, Calif.). The maze had two open arms (51 cm×12 cm each) and was located in a moderately lit room. Open arms consisted of black Plexiglas floors and no walls. The closed arms had black Plexiglas walls 40 cm high. […] Automated software (Motor Monitor 4.14) recorded the second by second movements of the animals while the experimenter made observations in an obscured corner. Each session lasted 8 m and both the observer and the software recorded the latency to exit the first arm and the number of entries into the open and closed arms. Additionally, the software recorded time spent in the each region of the maze. […]

For series [5] the following is noted: cited from earlier work; for crossing of the blood-brain barrier: in vivo.
Series [6] has as its system adult male Long Evans rats. In words: Auditory Pavlovian fear conditioning after systemic ghrelin receptor agonist injections in nonstressed rats. It is filed as in vivo, rat. Conditions: for fear memory after a single injection: 1 day of injection, conditioning 24 h later; for long-term fear memory (conditional freezing to the tone): conditioning 24 h after last injection, test 48 h later. The method, then: Subjects. All experiments used adult male Long Evans rats (250-350 g, Taconic, Germantown, N.Y.), housed individually (68-72° F.; 12-h light-dark cycle, 7 AM lights on). Food and water (or 0.9% saline for adrenalectomy experiments) was provided ad libitum. Stressed and unstressed animals were housed in separate cubicles. All procedures were in accordance with the US National Institutes of Health (NIH) Guide for the Care and Use of Laboratory Animals and were approved by the MIT Institutional Animal Care and Use Committee and the Animal Care and Use Review Office of the USAMRMC.
as §1
To determine whether increased activation of the ghrelin receptor is sufficient for enhancement of fear memory, experiments were conducted using pharmacological agonism of GHSR-1a in non-stressed animals. […] MK-0677 (MK: 5d) or saline (VEH: 5d) was systemically administered once a day for five consecutive days in nonstressed rats to determine whether repeated ghrelin receptor agonism in the absence of stress is sufficient to increase fear learning and whether HPA hormones may play a role in this effect. […] One subset of animals was administered auditory fear conditioning 24 h after the last injection.

The test system of series [7] is adult male Long Evans rats. Put plainly: Chronic immobilization stress followed by auditory fear conditioning, ghrelin receptor blockade during stress. Conditions: for long-term fear memory in stressed rats (stress-enhanced fear): daily systemic injection at start of immobilization stress, 4 h/d 14 d.
Experimental: Drug Preparation. For systemic drug delivery, rats were injected with 1 ml/kg (i.p.) of the appropriate solution. All drugs were solubilized in 0.9% saline (vehicle) such that injection volumes remained constant for each experiment. […] D-Lys3-GHRP-6 (Tocris Biosciences; Minneapolis, Minn.) was diluted to 2.74 ug/ml in vehicle. […] D-Lys3-GHRP-6 was injected within 30 m of the start of immobilization stress or following handling.
Immobilization Stress. Immobilization stress was administered 4 h per day for 1-14 consecutive days, depending on the experiment. Animals were placed in Decapicone plastic bags (Braintree Scientific; Braintree, Mass.), which were secured at the tail. Stress occurred in a lab room used for no other procedures. All stress sessions were performed between LOAM and 4 PM. Unstressed control rats were handled daily for 30 s. For further parallel control parameters, food was removed from the unstressed rats daily for the same 4 h period in which stressed animals were immobilized and, therefore, without food.
Pavlovian Fear Conditioning. Fear conditioning experiments were conducted in a modified chamber (MED Associates; St. Albans, Vt.) housed in a sound-attenuated cubicle. The animals were placed in individual chambers and infrared video of each session was recorded. Each experiment used auditory fear conditioning wherein rats received 3-5 tone (2 kHz, 85 dB, 10-16s)-footshock (1-2s, 0.4-0.7 mA) pairings in a unique context (metal shock grid floors, chamber fan on, 0.3% PineSol odor, house and room lights on). Animals were allowed 2-3 m to habituate to the chamber before tone-footshock pairings were given at intervals of 1-4 m. Fear memory was tested 24-72 h later by placing the animals in a novel context (white Plexiglas plastic floors, curved Plexiglas wall inserts, fans off, 1% acetic acid odor, house and room lights off). One to 5 m after placement in the novel context, fear to the tone was assessed either by presenting a continuous tone (2 kHz, 85 dB, 8 minutes) or several discrete tones (15 10-16s tones with 1-4 m ISI). Freezing was measured using commercial software (VideoFreeze, MedAssociates, St. Albans, Vt.).
Statistics. For each fear memory session, conditional freezing was assessed as a percentage of time spent freezing, a probability estimate that is amenable to analysis with parametric statistics. These probability estimates of freezing, along with other measures, were analyzed using ANOVA. Post hoc comparisons in the form of Fisher's PLSD tests were performed after a significant omnibus F-ratio (p<0.05). […] All data where p>0.10 are identified as not significant (ns).
To determine whether ghrelin signaling is necessary for stress-related enhancement of fear memory, ghrelin receptor signaling was blocked during repeated stress sessions. […] Twenty-four hours following the final stress or handling session, auditory fear conditioning was administered and fear to the tone was assessed in a subsequent session.
Series [8] has as its target melanocortin receptors. Conditions: cited from earlier work.
The target in series [9] is GHSR1a (Homo sapiens, UniProt Q92847). Conditions: Tocris Bioscience literature; read-out: IC50 as inhibitor of GHSR1a; cited from earlier work.
In series [10] the test system is corticosterone. Put plainly: Plasma corticosterone by ELISA in stressed rats given DLys3. Conditions: stressed animals, tail bleeds in final 30 m of final stress session. It is filed as in vivo, rat. The method, then:
Rats received either daily handling (NS) or immobilization stress (STR). Each day, a systemic injection of either Dlys3-GHRP-6 (Dlys3), an antagonist of GHSR-1a, or saline (VEH) was administered within 30 m of handling or stress initiation. (a) Animals received auditory fear conditioning 24 h after the last stress or handling session. […] (c) In a subset of animals in the STR group, tail bleeds were performed during the final 30 m of the final stress session and plasma corticosterone levels were measured using ELISA. All data are mean±s.e.m. * p<0.05, ˜p<0.10 in planned comparisons.
Hormone Assays. Corticosterone, acylated ghrelin, growth hormone and CRF levels were determined using commercial ELISA kits. For corticosterone, non-acidified plasma was diluted 1:25 in assay buffer 15 (Enzo Life Sciences; Farmingdale, N.Y.). For acylated ghrelin, the acidified sample was used for the active ghrelin ELISA (Millipore; Billerica, Mass.) and processed according to the manufacturer's protocol. […] For growth hormone, brain tissue was homogenized 1:6 in lysis buffer and was assayed as per manufacturer's protocol (Millipore; Billerica, Mass.). For CRF, brain tissue collected by micro-dissection was homogenized 1:30 w/v in lysis buffer and assayed per manufacturer's protocol (Kamiya Biomedical Company, Seattle, Wash.).

[11] abbreviates: systemic injection once a day for 5 days, nonstressed rats.

GHSR1a, sequence (Q92847 whole entry): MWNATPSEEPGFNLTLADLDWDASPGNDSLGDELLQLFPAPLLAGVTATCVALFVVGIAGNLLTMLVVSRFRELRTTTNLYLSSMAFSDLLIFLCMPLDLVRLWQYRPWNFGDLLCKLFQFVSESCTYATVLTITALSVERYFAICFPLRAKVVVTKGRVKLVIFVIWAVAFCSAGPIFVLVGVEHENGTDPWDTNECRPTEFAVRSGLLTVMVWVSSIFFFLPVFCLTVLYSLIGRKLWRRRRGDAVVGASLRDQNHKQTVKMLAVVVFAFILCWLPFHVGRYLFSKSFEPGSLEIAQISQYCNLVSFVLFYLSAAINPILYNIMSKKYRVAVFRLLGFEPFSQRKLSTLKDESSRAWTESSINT

In the case of `CC(C)(N)C(=O)N[C@H](COCc1ccccc1)C(=O)N1CCC2(CC1)CN(S(C)(=O)=O)c1ccccc12` [MK-0677], in [1], the “freezing during fear conditioning” value is “not altered” and the long-term fear memory entry is recorded as “significantly enhanced”. Also, in series [1] (listed as MK677), the long-term fear memory result is on record as “sufficient to enhance fear memory”. For the same molecule, in series [2], the “amygdalar CRF level” value was “trend for repeated ghrelin receptor activation to decrease” and the “hypothalamic CRF level” value was “no change”. Also, in series [3], the growth hormone release entry is “significant and prolonged increases”; the tolerability result is “well-tolerated”. The “innate anxiety (open arm time)” value in series [4] is “not altered”. Also, the “crossing of the blood-brain barrier” value in series [5] is “readily crosses the blood-brain barrier”. For the same molecule, the half-life in [5] (ref 30) was 5 to 6 h. The half-life entry in [5] (refs 47, 48) is reported as “over six”. For the same molecule, in [6], the “fear memory after a single injection” value was “trend towards impairment”. Besides, the “fear memory after a single injection” value in series [6] (listed as MK677) is on record as “no effect”. Besides, in series [6] (conditioning 24 h before 5 d of injections, test 24 h after last injection), the “expression of previously acquired auditory fear memory” value is “not affected”. For the same molecule, in [6] (daily injections for 3 days), the “fear memory after 3 days of injections” value is recorded as “no effect”. The “fear memory after a single injection followed by 14 d delay” value in [6] (single injection, 14 d in vivarium before conditioning) was “not sufficient to enhance fear”. For the same molecule, in series [6] (setting [11]), the “fear acquisition during conditioning (freezing)” value is recorded as “did not alter” and the “long-term fear memory (conditional freezing to the tone)” value was “significantly enhanced”. Also, in series [6] (systemic injection once a day for 5 days, nonstressed rats, listed as MK677), the “long-term fear memory (conditional freezing to the tone)” value is listed as “increased fear memory”.
In general, Ki refers to the dissociation constant of the complex between target and ligand, obtained from inhibition or displacement. As a reminder, the IC50 is the concentration that gives 50% inhibition. For the molecule H[dW][dK]W[dF]K-NH2 [D-Lys3-GHRP-6], the “long-term fear memory in stressed rats (stress-enhanced fear)” value in series [7] (listed as DLys3) is recorded as “completely reversed stress-enhanced fear”; in series [7] (listed as Dlys-3), “sufficient to prevent stress-related enhancement of fear memory”. Besides, the “stress enhancement of fear acquisition” value in series [7] (daily systemic injection during immobilization stress) is given as “not seen”. For the same molecule, the “fear memory in nonstressed controls” value in series [7] (daily systemic injection with daily handling) was “no effect”. Further, the Ki in series [8] was 26 to 120 µM. Moreover, the IC50 in series [9] is 0.9 µM. Further, the “stress-induced HPA activation as corticosterone secretion” value in series [10] is given as “did not blunt”. For the same molecule, the “crossing of the blood-brain barrier” value is on record as “crosses the blood brain barrier” in series [5] and “crosses the blood-brain barrier” in [5] (listed as DLys3).
As for “acylated ghrelin: acylated (bioactive) form of the peptide hormone ghrelin, infused into the BLA”, the long-term fear memory entry in [1] (listed as bioactive ghrelin) is reported as “replicated”. Further, the half-life in [5] (ref 29) is about 30 m.
